Data as given in patent US12590062B2, “PD-1/PD-L1 inhibitors” (Gilead Sciences, Inc., priority 2017, dated 2026).

Legend:
PD-1/PD-L1 = PD-1/PD-L1 (Homo sapiens, UniProt Q9NZQ7); experiment: PD-1/PD-L1 biochemical protein-protein interaction assay (ALPHA); assay type: binding; settings: 0.3 nM His tagged PD-L1, 2.5 nM biotinylated Fc-PD-1, 60 minutes at 25° C., read-out: IC50 PD-L1-PD-1 Alpha IC50-mono PD-L1-fcP-D1
Procedure, shortened: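 His-PD-L1 ECD 0.3 nM + biotin-Fc-PD-1 2.5 nM (final), 25 mM Hepes pH 7.4, 150 mM NaCl, 3.4 mM EDTA; 60 min, 25° C; anti-His acceptor/streptavidin donor ALPHA beads; decreased signal = blocked binding; 4-parameter IC50.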

PD-1/PD-L1 interaction = molecular target: T1, PD-1/PD-L1 interaction (Homo sapiens, UniProt Q9NZQ7); experiment: PD-1/PD-L1 NFAT reporter co-culture assay; assay type: cell-based; settings: Jurkat PD-1 NFAT-luciferase cells co-cultured with aAPC-PD-L1 CHO cells, 6 hrs at 37° C.; read-out: EC50 NFAT Luciferase
T1 construct: expressed in transfected cells; host or cells: CHO cells (aAPC-PD-L1) co-cultured with Jurkat cells overexpressing PD-1 and an NFAT-luciferase reporter
T1 sequence (Q9NZQ7 19-290): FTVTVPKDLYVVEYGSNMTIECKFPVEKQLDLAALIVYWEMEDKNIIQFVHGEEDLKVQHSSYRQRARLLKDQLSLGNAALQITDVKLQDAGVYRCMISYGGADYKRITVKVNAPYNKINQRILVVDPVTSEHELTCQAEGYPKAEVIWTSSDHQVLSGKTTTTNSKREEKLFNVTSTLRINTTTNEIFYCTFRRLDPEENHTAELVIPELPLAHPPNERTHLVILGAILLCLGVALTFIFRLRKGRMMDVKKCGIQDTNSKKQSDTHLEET
Procedure, shortened: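 Jurkat cells overexpressing PD-1 with NFAT-driven luciferase were mixed with compound in RPMI 1640/2% FBS and seeded onto overnight-plated CHO aAPC-PD-L1 cells expressing surface anti-CD3 and PD-L1. Co-culture ran 6 h at 37 °C; luminescence read with ONE-Glo; EC50 from four-parameter fit.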

PD-L1 = molecular target: T2, PD-L1 (Homo sapiens, UniProt Q9NZQ7); experiment: PD-L1/PD-L1 dimerization biochemical protein-protein interaction assay (ALPHA); assay type: binding; settings: compound-induced PD-L1 dimerization, head prints '1 nM' (0.5 nM His-tagged PD-L1 and 0.5 nM FLAG-tagged PD-L1), read-out: AC50 PDL1 Dimer Alpha 1 nM
T2 construct: determine if they can specifically dimerize the extracellular domains of PD-L1
T2 sequence (Q9NZQ7 19-238 limits assumed): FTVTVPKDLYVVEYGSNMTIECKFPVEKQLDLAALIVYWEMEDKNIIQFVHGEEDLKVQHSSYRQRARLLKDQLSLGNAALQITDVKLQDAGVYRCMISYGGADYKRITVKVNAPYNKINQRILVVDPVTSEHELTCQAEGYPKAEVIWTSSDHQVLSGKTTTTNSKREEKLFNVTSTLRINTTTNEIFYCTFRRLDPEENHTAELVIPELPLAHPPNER
T2 sequence (Q9NZQ7 19-238 limits assumed): as above
Procedure, shortened: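 After 2 h at 25 °C with compound, His- and FLAG-tagged PD-L1 ECDs (each 0.5 nM final; 25 mM Hepes pH 7.4, 150 mM NaCl) were detected by sequential anti-His acceptor and anti-FLAG donor bead incubations. Dose-response curves fitted to four-parameter equation for AC50.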

PD-1/PD-L1, sequence (Q9NZQ7 19-238 limits assumed): as above

| SMILES | IC50 (PD-1/PD-L1) | EC50 (PD-1/PD-L1 interaction) | AC50 (PD-L1) |
| --- | --- | --- | --- |
| COc1nc(-c2cccc(-c3cccc(-c4ccc5cc(CN(C)C)[nH]c5c4)c3Cl)c2Cl)ccc1CNC[C@@H]1CCC(=O)N1 [Example 607] | 1.19 nM | 1730 nM | 296 nM |
| COc1nc(-c2cccc(-c3cccc(-c4ccc5[nH]cc(CN(C)C)c5c4)c3Cl)c2Cl)ccc1CNC[C@@H]1CCC(=O)N1 [Example 608] | 1.72 nM | ≥ 50000 nM | 214 nM |
| COc1nc(-c2cccc(-c3cccc(-c4ccc5c(C[N+](C)(C)C)c[nH]c5c4)c3Cl)c2Cl)ccc1CNC[C@@H]1CCC(=O)N1 [Example 609] | 0.387 nM | 541 nM | 143 nM |
| COc1nc(-c2cccc(-c3cccc(-c4ccc5c(c4)CCC(N)C5)c3Cl)c2Cl)ccc1CN1CC2(CCC(=O)N2)C1 (stereo not drawn) [Example 612] | 2.45 nM | ≥ 50000 nM | 729 nM |
| COc1nc(-c2cccc(-c3cccc(-c4ccc5c(c4)C[C@@H](N)C5)c3Cl)c2Cl)ccc1CN1CC2(CCC(=O)N2)C1 [Example 613] | 1.38 nM | 484 nM | 158 nM |
| COc1nc(-c2cccc(-c3cccc(-c4ccc5ncc(CN6CC7(CCC(=O)N7)C6)n5c4)c3Cl)c2Cl)ccc1CN1CC2(CCC(=O)N2)C1 [Example 614] | 11.5 nM | ≥ 50000 nM | ≥ 10000 nM |
| COc1nc(-c2cccc(-c3cccc(-c4ccc5ncc(CN6CC(O)C6)n5c4)c3Cl)c2Cl)ccc1CN1CC(O)C1 [Example 615] | 7.88 nM | ≥ 50000 nM | ≥ 10000 nM |
| COc1nc(-c2cccc(-c3cccc(-c4ccn5cc(CN(C)C)nc5c4)c3Cl)c2Cl)ccc1CN(C)C [Example 617] | 0.17 nM | ≥ 50000 nM | 265 nM |
| COc1nc(-c2cccc(-c3cccc(-c4ccn5cc(CN6CC7(CCC(=O)N7)C6)nc5c4)c3Cl)c2Cl)ccc1CN1CC2(CCC(=O)N2)C1 [Example 618] | 0.224 nM | ≥ 50000 nM | 389 nM |
| COc1nc(-c2cccc(-c3cccc(-c4ccc5ncc(CNCCO)n5c4)c3Cl)c2Cl)ccc1CNCCO [Example 620] | 2.84 nM | ≥ 50000 nM | ≥ 10000 nM |
| COc1nc(-c2cccc(-c3cccc(-c4ccc5ncc(CNC[C@@H](O)CC(=O)O)n5c4)c3Cl)c2Cl)ccc1CNC[C@@H](O)CC(=O)O [Example 621] | 1.04 nM | ≥ 50000 nM | ≥ 10000 nM |
| COc1nc(-c2cccc(-c3cccc(-c4ccc5ncc(CNC[C@@H]6CCC(=O)N6)n5c4)c3Cl)c2Cl)ccc1CNC[C@@H]1CCC(=O)N1 [Example 622] | 0.567 nM | ≥ 50000 nM | ≥ 10000 nM |
| COc1nc(-c2cccc(-c3cccc(-c4ccc5c(c4)[C@H](N)CC5)c3Cl)c2Cl)ccc1C1=NCCN1 [Example 623] | 5.2 nM | ≥ 50000 nM | ≥ 10000 nM |
| COc1nc(-c2cccc(-c3cccc(-c4ccc5c(c4)CCC5N)c3Cl)c2Cl)ccc1C1=NCCN1 (stereo not drawn) [Example 624] | 0.109 nM | ≥ 50000 nM | 20.9 nM |
| COc1nc(-c2cccc(-c3cccc(-c4ccc5c(c4)C[C@@H](N)C5)c3Cl)c2Cl)ccc1C1=NCCN1 [Example 625] | 0.238 nM | ≥ 50000 nM | 98.2 nM |
| O=C1CC[C@@H](CNCc2ccc(-c3cccc(-c4cccc(-c5ccc(CNC[C@@H]6CCC(=O)N6)c(N6CCOCC6)c5)c4Cl)c3Cl)cc2N2CCOCC2)N1 [Example 626] | 3.08 nM | ≥ 50000 nM | ≥ 10000 nM |
| COc1cc(-c2cccc(-c3cccc(-c4ccc(CNCCO)c(OC)c4)c3C)c2C)ccc1CNCCO [Example 627] | 2.44 nM | ≥ 50000 nM | 480 nM |
| COc1cc(-c2cccc(-c3cccc(-c4cnc(C5=NCCN5)c(OC)c4)c3Cl)c2Cl)cnc1CNC[C@@H](O)CC(=O)O [Example 629] | 0.064 nM | 251 nM | ≥ 10000 nM |
| COc1cc(-c2cccc(-c3cccc(-c4cnc(C5=NCCN5)c(OC)c4)c3Cl)c2Cl)cnc1C1=NCCN1 [Example 630] | 0.064 nM | 165 nM | ≥ 10000 nM |
| COc1nc(-c2cccc(-c3cccc(N4Cc5cc(CN6CC7(CCC(=O)N7)C6)ccc5C4=O)c3Cl)c2Cl)ccc1CN1CC2(CCC(=O)N2)C1 [Example 631] | 0.13 nM | ≥ 50000 nM | 441 nM |
| COc1nc(-c2cccc(-c3cccc(N4Cc5cc(CNC[C@@H]6CCC(=O)N6)ccc5C4=O)c3Cl)c2Cl)ccc1CNC[C@@H]1CCC(=O)N1 [Example 632] | 0.147 nM | 2980 nM | 314 nM |
| OCCNCc1cc(Cl)c2nc(-c3cccc(-c4cccc(-c5nc6c(Cl)cc(CNCCO)cn6n5)c4Cl)c3Cl)nn2c1 [Example 635] | 0.1 nM | ≥ 50000 nM | 340 nM |
| COc1nc(-c2cccc(-c3cccc(-c4nc5cc(CNCCO)ccc5o4)c3Cl)c2Cl)ccc1CNCCO [Example 636] | 0.188 nM | 180 nM | 83.6 nM |
| CS(=O)(=O)c1cncc(COc2nc(O[C@H]3CCc4c(-c5cccc(-c6ccc(OCCNCCO)cc6)c5Cl)cccc43)c(Cl)cc2CNC[C@@H](O)CC(=O)O)c1 [Example 637, (S)-4-(((5-chloro-6-(((S)-4-(2-chloro-4′-(2-((2-hydroxyethyl)amino)ethoxy)-[1,1′-biphenyl]-3-yl)-2,3-dihydro-1H-inden-1-yl)oxy)-2-((5-(methylsulfonyl)pyridin-3-yl)methoxy)pyridin-3-yl)methyl)amino)-3-hydroxybutanoic acid] | 0.064 nM | 90 nM | 20.8 nM |

Second part, the compound after the results:

| IC50 (PD-1/PD-L1) | EC50 (PD-1/PD-L1 interaction) | AC50 (PD-L1) | SMILES |
| --- | --- | --- | --- |
| 0.746 nM | ≥ 50000 nM | 105 nM | COc1nc(-c2cccc(-c3cccc(-c4ccc5c(CN(C)C)c[nH]c5c4)c3Cl)c2Cl)ccc1CNC[C@@H]1CCC(=O)N1 [Example 610] |
| 0.482 nM | 223 nM | 408 nM | COc1nc(-c2cccc(-c3cccc(-c4ccc5c(c4)[C@H](O)C[C@@H]5N)c3Cl)c2Cl)ccc1CNC[C@@H]1CCC(=O)N1 [Example 611] |
| 0.295 nM | ≥ 50000 nM | 156 nM | COc1nc(-c2cccc(-c3cccc(-c4ccn5cc(CN6CC(O)C6)nc5c4)c3Cl)c2Cl)ccc1CN1CC(O)C1 [Example 616] |
| 0.159 nM | 187 nM | 118 nM | COc1nc(-c2cccc(-c3cccc(-c4ccn5cc(CNC[C@@H]6CCC(=O)N6)nc5c4)c3Cl)c2Cl)ccc1CNC[C@@H]1CCC(=O)N1 [Example 619] |
| 1.26 nM | 2280 nM | 2840 nM | COc1nc(-c2cccc(-c3cccc(-c4nc5ccc(CNC[C@@H]6CCC(=O)N6)cn5n4)c3Cl)c2Cl)ccc1CNC[C@@H]1CCC(=O)N1 [Example 633] |
| 0.208 nM | 495 nM | 96.9 nM | COc1nc(-c2cccc(-c3cccc(-c4nc5cc(CNCCO)cc(OC)c5o4)c3Cl)c2Cl)ccc1CNCCO [Example 634] |
| 0.064 nM | 429 nM | 23.8 nM | COc1nc(O[C@H]2CCc3c(-c4cccc(-c5nc6cc(CNCCO)ccn6n5)c4Cl)cccc32)c(Cl)cc1CNCCO [Example 638, (S)-2-(((2-(2-chloro-3-(1-((3-chloro-5-(((2-hydroxyethyl)amino)methyl)-6-methoxypyridin-2-yl)oxy)-2,3-dihydro-1H-inden-4-yl)phenyl)-[1,2,4]triazolo[1,5-a]pyridin-7-yl)methyl)amino)ethan-1-ol] |
| 0.064 nM | 60 nM | 34.7 nM | COc1nc(-c2cccc(-c3cccc4c3CC[C@@H]4Oc3nc(OC)c(CN4CC[C@@H](c5nnn[nH]5)C4)cc3Cl)c2Cl)ccc1CNC[C@@H]1CCC(=O)N1 [Example 641] |
| 2.36 nM | 194 nM | 67.2 nM | COc1nc(O[C@H]2CCc3c(-c4cccc(-c5cnc(CNC[C@@H]6CCC(=O)N6)c(OC)n5)c4Cl)cccc32)c(Cl)cc1CN[C@@H]1CCC[C@@H]1O [Example 642] |
| 0.734 nM | 89 nM | 39 nM | COc1nc(O[C@H]2CCc3c(-c4cccc(-c5cnc(CN[C@@H]6CCC[C@@H]6O)c(OC)n5)c4Cl)cccc32)c(Cl)cc1CN[C@@H]1CCC[C@@H]1O [Example 643] |
| 1.95 nM | 82 nM | 136 nM | COc1nc(-c2cccc(-c3cccc4c3CC[C@@H]4Oc3nc(OC)c(CNC[C@@H]4CCC(=O)N4)cc3Cl)c2Cl)ccc1CN[C@@H]1CCC[C@@H]1O [Example 644] |
| 0.064 nM | 30 nM | 30.7 nM | COc1nc(-c2cccc(-c3cccc4c3CC[C@@H]4Oc3nc(OC)c(CN[C@@](C)(CO)C(=O)O)cc3Cl)c2Cl)ccc1CN[C@@H]1CCC[C@@H]1O [Example 645] |
| 6.25 nM | 145 nM | 73.2 nM | COc1nc(-c2cccc(-c3cccc4c3CC[C@@H]4Oc3nc(OC)c(CN[C@@H]4CCC[C@@H]4O)cc3Cl)c2Cl)ccc1CN[C@@H]1CCC[C@@H]1O [Example 646] |
